For orientation: IC50 means the concentration at which inhibition is half-maximal.

Where two headings read alike, the source gives them in different places.

This test deals with T1, Cannabinoid-1 receptor (CB1R) (Rattus norvegicus, UniProt P20272).
T1 construct: The tissue obtained from the brain of SD rats was homogenized; from tissue; host or cells: brain of SD rats (membrane pellet of the homogenate)
Kind of test: Cannabinoid-1 receptor (CB1R) binding affinity assay ([3H]CP-55940, rat CB-1 receptor binding protocol). To be noted: brain tissue of SD rats, [3H]CP-55940, 30° C. 60 min.

T1 sequence (P20272 whole entry): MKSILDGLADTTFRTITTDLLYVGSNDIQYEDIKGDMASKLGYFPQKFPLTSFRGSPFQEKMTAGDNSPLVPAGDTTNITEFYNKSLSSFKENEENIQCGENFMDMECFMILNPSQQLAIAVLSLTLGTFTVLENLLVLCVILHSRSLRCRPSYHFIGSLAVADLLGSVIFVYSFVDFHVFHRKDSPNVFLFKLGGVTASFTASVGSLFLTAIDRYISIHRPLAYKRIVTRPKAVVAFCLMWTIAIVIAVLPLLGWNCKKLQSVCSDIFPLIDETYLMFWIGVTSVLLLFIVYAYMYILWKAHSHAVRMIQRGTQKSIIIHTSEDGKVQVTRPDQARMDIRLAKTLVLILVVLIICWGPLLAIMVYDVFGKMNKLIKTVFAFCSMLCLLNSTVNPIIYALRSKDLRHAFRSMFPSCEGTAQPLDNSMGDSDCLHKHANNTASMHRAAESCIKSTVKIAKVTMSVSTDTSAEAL

Consider `Cc1c(-c2nnc(C3(c4ccc(Cl)cc4)CCC3)s2)nn(-c2ccc(Cl)cc2Cl)c1-c1ccc(Cl)cc1` [Example 431, 2-(5-(4-chlorophenyl)-1-(2,4-dichlorophenyl)-4-methyl-1H-pyrazol-3-yl)-5-(1-(4-chlorophenyl)cyclobutyl)-1,3,4-thiadiazole], for which the IC50 (read-out: IC50) is 7.5 nM.
Same read-out and setting: for `CCC(C)c1nc(-c2nn(-c3ccc(Cl)cc3Cl)c(-c3ccc(Cl)cc3)c2C)n[nH]1` (centres unmarked) [Example 622, 5-sec-butyl-3-(5-(4-chlorophenyl)-1-(2,4-dichlorophenyl)-4-methyl-1H-pyrazol-3-yl)-1H-1,2,4-triazole] the value was 840 nM; for `Cc1c(-c2nnnn2Cc2ccoc2)nn(-c2ccc(Cl)cc2Cl)c1-c1ccc(Cl)cc1` [Example 595, 5-(5-(4-Chlorophenyl)-1-(2,4-dichlorophenyl)-4-methyl-1H-pyrazol-3-yl)-1-(furan-3-ylmethyl)-1H-tetrazole], 105 nM.
Turning to `Cc1c(-c2ncc(C(C)(C)C)o2)nn(-c2ccc(Cl)cc2Cl)c1-c1ccc(Cl)cc1` [Example 644, 5-tert-butyl-2-(5-(4-chlorophenyl)-1-(2,4-dichlorophenyl)-4-methyl-1H-pyrazol-3-yl)oxazole], the IC50 (IC50(nM)) is 14.2 nM.
On to `Cc1c(-c2nnc(C3(c4ccc(Cl)cc4Cl)CC3)s2)nn(-c2ccc(Cl)cc2Cl)c1-c1ccc(Cl)cc1` [Example 459, 2-(5-(4-chlorophenyl)-1-(2,4-dichlorophenyl)-4-methyl-1H-pyrazol-3-yl)-5-(1-(2,4-dichlorophenyl)cyclopropyl)-1,3,4-thiadiazole], for which the IC50 (read-out: IC50) is 10.8 nM.
Turning to `CCCCC(C)c1nnc(-c2nn(-c3ccc(Cl)cc3Cl)c(-c3ccc(Br)cc3)c2CC)s1` (centres unmarked) [Example 388, 2-(5-(4-bromophenyl)-1-(2,4-dichlorophenyl)-4-ethyl-1H-pyrazol-3-yl)-5-(hexan-2-yl)-1,3,4-thiadiazole], the IC50 (read-out: IC50) stood at 7.01 nM.
Same read-out and setting: for `CC(C)(C)c1nnc(-c2nn(-c3ccc(Cl)cc3Cl)c(-c3ccc(Cl)cc3)c2COC(=O)c2ccccc2)o1` [Example 198, (3-(5-tert-butyl-1,3,4-oxadiazol-2-yl)-5-(4-chlorophenyl)-1-(2,4-dichlorophenyl)-1H-pyrazol-4-yl)methyl benzoate] the value was 68.8 nM.
Regarding `Cc1c(-c2nc3c(o2)CCCC3)nn(-c2ccc(Cl)cc2Cl)c1-c1ccc(Cl)cc1` [Example 642, 2-(5-(4-chlorophenyl)-1-(2,4-dichlorophenyl)-4-methyl-1H-pyrazol-3-yl)-4,5,6,7-tetrahydrobenzo[d]oxazole], the IC50 (IC50(nM)) stood at 44.2 nM.
For `Cc1c(-c2nnc(C(C)(C)OCc3ccccc3F)o2)nn(-c2ccc(Cl)cc2Cl)c1-c1ccc(Cl)cc1` [Example 248, 2-(5-(4-Chlorophenyl)-1-(2,4-dichlorophenyl)-4-methyl-1H-pyrazol-3-yl)-5-(2-(2-fluorobenzyloxy)propan-2-yl)-1,3,4-oxadiazole], the IC50 (read-out: IC50) came out at 25.1 nM.
The same measure, in the same setting: next, `CCCCC(C)(C)c1nnc(-c2nn(-c3ccccc3Cl)c(-c3ccc(Cl)cc3)c2C)s1` [Example 415, 2-(1-(2-chlorophenyl)-5-(4-chlorophenyl)-4-methyl-1H-pyrazol-3-yl)-5-(2-methylhexan-2-yl)-1,3,4-thiadiazole]: 8.02 nM; `CCC(C)c1nnc(-c2nn(-c3ccc(Cl)cc3Cl)c(-c3ccccc3)c2C)s1` (centres unmarked) [Example 422, 2-sec-butyl-5-(1-(2,4-dichlorophenyl)-4-methyl-5-phenyl-1H-pyrazol-3-yl)-1,3,4-thiadiazole]: 226 nM.
Take `COc1ccc(-c2c(C)c(-c3nnc(C4(c5ccc(Cl)cc5)CC4)o3)nn2-c2ccc(Cl)cc2Cl)cc1` [Example 138, 2-(1-(4-chlorophenyl)cyclopropyl)-5-(1-(2,4-dichlorophenyl)-5-(4-methoxyphenyl)-4-methyl-1H-pyrazol-3-yl)-1,3,4-oxadiazole]: the IC50 (read-out: IC50) is 10 nM.
Same read-out and setting: for `Cc1ccc(C2(c3nnc(-c4nn(-c5ccc(Cl)cc5Cl)c(-c5ccc(Cl)cc5)c4Cn4cncn4)s3)CC2)cc1` [Example 508, 2-(4-((1H-1,2,4-triazol-1-yl)methyl)-5-(4-chlorophenyl)-1-(2,4-dichlorophenyl)-1H-pyrazol-3-yl)-5-(1-p-tolylcyclopropyl)-1,3,4-thiadiazole] the value was 5.74 nM; for `FC(F)(F)C1(c2nnc(-c3nn(-c4ccc(Cl)cc4Cl)c(-c4ccc(Cl)cc4)c3Cn3cncn3)o2)CCC1` [Example 321, 2-(4-((1H-1,2,4-triazol-1-yl)methyl)-5-(4-chlorophenyl)-1-(2,4-dichlorophenyl)-1H-pyrazol-3-yl)-5-(1-(trifluoromethyl)cyclobutyl)-1,3,4-oxadiazole], 1.73 nM; for `CCc1c(-c2nnc(C3(C)CCCCC3)s2)nn(-c2ccc(Cl)cc2Cl)c1-c1ccc(Br)cc1` [Example 455, 2-(5-(4-bromophenyl)-1-(2,4-dichlorophenyl)-4-ethyl-1H-pyrazol-3-yl)-5-(1-methylcyclohexyl)-1,3,4-thiadiazole], 14.5 nM.
Take `CCc1c(-c2nnc(C3(c4ccc(F)cc4)CC3)s2)nn(-c2ccc(Cl)cc2Cl)c1-c1ccc(Br)cc1` [Example 492, 2-(5-(4-bromophenyl)-1-(2,4-dichlorophenyl)-4-ethyl-1H-pyrazol-3-yl)-5-(1-(4-fluorophenyl)cyclopropyl)-1,3,4-thiadiazole]: the IC50 (read-out: IC50) came to 2.24 nM.
`Cc1c(-c2nnc(C3(c4ccc(Cl)cc4)CCC3)o2)nn(-c2ccccc2Br)c1-c1ccc(Cl)cc1` [Example 159, 2-(1-(2-bromophenyl)-5-(4-chlorophenyl)-4-methyl-1H-pyrazol-3-yl)-5-(1-(4-chlorophenyl)cyclobutyl)-1,3,4-oxadiazole]: the IC50 (read-out: IC50) amounted to 7.51 nM.
As for `CCc1c(-c2nnc(C3(c4ccccc4)CC3)s2)nn(-c2ccc(Cl)cc2Cl)c1-c1ccc(Br)cc1` [Example 450, 2-(5-(4-bromophenyl)-1-(2,4-dichlorophenyl)-4-ethyl-1H-pyrazol-3-yl)-5-(1-phenylcyclopropyl)-1,3,4-thiadiazole], the IC50 (read-out: IC50) worked out at 7.42 nM.
For `CCC(C)c1nc(-c2nn(-c3ccc(Cl)cc3Cl)c(-c3ccc(Cl)cc3)c2C)nn1C(C)C` (centres unmarked) [Example 633, 5-sec-butyl-3-(5-(4-chlorophenyl)-1-(2,4-dichlorophenyl)-4-methyl-1H-pyrazol-3-yl)-1-isopropyl-1H-1,2,4-triazole], the IC50 (read-out: IC50) is 60.9 nM.
Take “5-(5-(4-Chlorophenyl)-1-(2,4-dichlorophenyl)-4-methyl-1H-pyrazol-3-yl)-1-cycloheptyl-1H-tetrazole [Example 601]”: the IC50 (read-out: IC50) turned out to be 26.7 nM.
On the same count and under the same terms, for `FCc1c(-c2nnc(C3(c4ccc(Cl)cc4)CC3)o2)nn(-c2ccc(Cl)cc2Cl)c1-c1ccc(Cl)cc1` [Example 223, 2-(5-(4-chlorophenyl)-1-(2,4-dichlorophenyl)-4-(fluoromethyl)-1H-pyrazol-3-yl)-5-(1-(4-chlorophenyl)cyclopropyl)-1,3,4-oxadiazole] the value was 7.89 nM; for `Cc1c(-c2nc(C(C)C)n(C)n2)nn(-c2ccc(Cl)cc2Cl)c1-c1ccc(Cl)cc1` [Example 634, 3-(5-(4-chlorophenyl)-1-(2,4-dichlorophenyl)-4-methyl-1H-pyrazol-3-yl)-5-isopropyl-1-methyl-1H-1,2,4-triazole], 289 nM; for `CCC1(c2nnc(-c3nn(-c4ccc(Cl)cc4Cl)c(-c4ccc(Cl)cc4)c3C)o2)CC1` [Example 277, 2-(5-(4-chlorophenyl)-1-(2,4-dichlorophenyl)-4-methyl-1H-pyrazol-3-yl)-5-(1-ethylcyclopropyl)-1,3,4-oxadiazole], 12.6 nM.

For the origin of these results see US7875647B2, “Heteroaryl-pyrazole derivatives as cannabinoid CB1 receptor antagonists” (Green Cross Corporation, priority 2006, dated 2011).
